Assay results published in ChEMBL document CHEMBL1123765, “Psychotropic agents: synthesis and antipsychotic activity of substituted beta-carbolines” (J Med Chem, 1987).

Tests used:
Rattus norvegicus [1] = assay: Antipsychotic activity was assessed by ability to block response of rats trained to avoid an electrical shock (inhibition of self-jump and/or discrete trial conditioned avoidance response(CAR) upon ip administration; value ranges from 15-33; format: functional
[2] = biological target: D(2) dopamine receptor (Rattus norvegicus) (UniProt P61169); assay: In vitro binding affinity for Dopamine receptor D2 of rat nucleus accumbens labeled with [3H]spiperone was determined at 10 uM concentration
D(2) dopamine receptor (Rattus norvegicus), sequence (P61169 whole entry): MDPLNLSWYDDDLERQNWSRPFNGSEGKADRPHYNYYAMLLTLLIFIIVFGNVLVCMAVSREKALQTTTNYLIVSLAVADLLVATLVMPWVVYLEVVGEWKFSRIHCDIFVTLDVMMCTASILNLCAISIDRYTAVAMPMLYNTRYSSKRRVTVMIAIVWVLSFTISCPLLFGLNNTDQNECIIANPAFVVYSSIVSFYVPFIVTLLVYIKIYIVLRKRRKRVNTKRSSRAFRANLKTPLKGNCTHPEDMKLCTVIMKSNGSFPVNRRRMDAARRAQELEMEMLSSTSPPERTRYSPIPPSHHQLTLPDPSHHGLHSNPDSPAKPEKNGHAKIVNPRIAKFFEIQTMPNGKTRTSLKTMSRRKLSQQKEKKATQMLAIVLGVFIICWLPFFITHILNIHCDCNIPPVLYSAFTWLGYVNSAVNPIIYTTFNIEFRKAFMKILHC

Rattus norvegicus [3] = assay: Antipsychotic activity was assessed by ability to block response of rats trained to avoid an electrical shock (inhibition of self-jump and/or discrete trial conditioned avoidance response(CAR) upon ip administration; format: functional
[4] = biological target: D(2) dopamine receptor (Rattus norvegicus) (UniProt P61169); assay: In vitro binding affinity for Dopamine receptor D2 of rat nucleus accumbens labeled with [3H]spiperone was determined at 1 uM concentration
[5] = biological target: D(2) dopamine receptor (Rattus norvegicus) (UniProt P61169); assay: In vitro binding affinity for Dopamine receptor D2 of rat striatum labeled with [3H]spiperone was determined at 10 uM concentration; format: tissue-based
Rattus norvegicus [6] = assay: Antipsychotic activity was assessed by ability to block response of rats trained to avoid an electrical shock (inhibition of self-jump and/or discrete trial conditioned avoidance response(CAR) upon ip administration; value ranges from 6.5-7.5; format: functional
Rattus norvegicus [7] = assay: Antipsychotic activity was assessed by ability to block response of rats trained to avoid an electrical shock (inhibition of self-jump and/or discrete trial conditioned avoidance response(CAR) upon po administration; value ranges from 8-17; format: functional
[8] = biological target: D(2) dopamine receptor (Rattus norvegicus) (UniProt P61169); assay: In vitro binding affinity for Dopamine receptor D2 of rat striatum labeled with [3H]-spiperone was determined at 10 uM concentration; format: tissue-based
Rattus norvegicus [9] = assay: Antipsychotic activity was assessed by ability to block response of rats trained to avoid an electrical shock (inhibition of self-jump and/or discrete trial conditioned avoidance response(CAR) upon ip administration; value ranges from 30-62; format: functional
Rattus norvegicus [10] = assay: Antipsychotic activity was assessed by ability to block response of rats trained to avoid an electrical shock (inhibition of self-jump and/or discrete trial conditioned avoidance response(CAR) upon po administration; value ranges from 2-3; format: functional
Rattus norvegicus [11] = assay: Antipsychotic activity was assessed by ability to block response of rats trained to avoid an electrical shock (inhibition of self-jump and/or discrete trial conditioned avoidance response(CAR) upon ip administration; value ranges from 2-7; format: functional
Rattus norvegicus [12] = assay: Antipsychotic activity was assessed by ability to block response of rats trained to avoid an electrical shock (inhibition of self-jump and/or discrete trial conditioned avoidance response (CAR) upon ip administration.* >40 indicates insignificant aactivity; format: functional
Rattus norvegicus [13] = assay: Antipsychotic activity was assessed by ability to block response of rats trained to avoid an electrical shock (inhibition of self-jump and/or discrete trial conditioned avoidance response(CAR) upon ip administration; value ranges from 15-22; format: functional
[14] = biological target: D(2) dopamine receptor (Rattus norvegicus) (UniProt P61169); assay: In vitro binding affinity for Dopamine receptor D2 of rat nucleus accumbens labeled with [3H]-spiperone was determined at 1 uM concentration
Rattus norvegicus [15] = assay: Antipsychotic activity was assessed by ability to block response of rats trained to avoid an electrical shock (inhibition of self-jump and/or discrete trial conditioned avoidance response(CAR) upon ip administration; value ranges from 14-49; format: functional
Rattus norvegicus [16] = assay: Antipsychotic activity was assessed by ability to block response of rats trained to avoid an electrical shock (inhibition of self-jump and/or discrete trial conditioned avoidance response(CAR) upon ip administration; value ranges from 0.12-0.33; format: functional
Rattus norvegicus [17] = assay: Antipsychotic activity was assessed by ability to block response of rats trained to avoid an electrical shock (inhibition of self-jump and/or discrete trial conditioned avoidance response(CAR) upon po administration; value ranges from 0.1-3.5; format: functional
D(2) dopamine receptor [18] = biological target: T1, D(2) dopamine receptor (Rattus norvegicus, UniProt P61169); assay: In vitro binding affinity for Dopamine receptor D2 of rat nucleus accumbens labeled with [3H]spiperone was determined at 10 uM concentration.
T1 sequence (P61169 whole entry): as above

D(2) dopamine receptor [19] = biological target: T1, D(2) dopamine receptor; assay: In vitro binding affinity for Dopamine receptor D2 of rat striatum labeled with [3H]-spiperone was determined
Rattus norvegicus [20] = assay: Antipsychotic activity was assessed by ability to block response of rats trained to avoid an electrical shock (inhibition of self-jump and/or discrete trial conditioned avoidance response(CAR) upon ip administration; value ranges from 19-78; format: functional
Rattus norvegicus [21] = assay: Antipsychotic activity was assessed by ability to block response of rats trained to avoid an electrical shock (inhibition of self-jump and/or discrete trial conditioned avoidance response(CAR) upon ip administration; value ranges from 33-37; format: functional
Rattus norvegicus [22] = assay: Antipsychotic activity was assessed by ability to block response of rats trained to avoid an electrical shock (inhibition of self-jump and/or discrete trial conditioned avoidance response(CAR) upon ip administration.; format: functional
Rattus norvegicus [23] = assay: Antipsychotic activity was assessed by ability to block response of rats trained to avoid an electrical shock (inhibition of self-jump and/or discrete trial conditioned avoidance response(CAR) upon ip administration; value ranges from 7-18; format: functional
Rattus norvegicus [24] = assay: Antipsychotic activity was assessed by ability to block response of rats trained to avoid an electrical shock (inhibition of self-jump and/or discrete trial conditioned avoidance response(CAR) upon ip administration; value ranges from 9-24; format: functional
Rattus norvegicus [25] = assay: Antipsychotic activity was assessed by ability to block response of rats trained to avoid an electrical shock (inhibition of self-jump and/or discrete trial conditioned avoidance response(CAR) upon po administration; value ranges from 30-33; format: functional

Row | Structure (SMILES) | AB50 (Rattus norvegicus [3]) [mg/kg] | inhibition [4] [%] | also measured
1 | c1cncc(CCCN2CCc3c([nH]c4ccccc34)C2)c1 |  |  | AB50 (Rattus norvegicus [1]): 21 mg/kg
2 | CN(C)CCCn1c2c(c3ccccc31)CCN(CCCc1cccnc1)C2 | >40 |  | inhibition [2]: 17%
3 | Fc1ccc(C(c2ccc(F)cc2)N2CCN(CCCN3CCc4c([nH]c5ccccc45)C3)CC2)cc1 | >40 |  | 
4 | Fc1ccc2[nH]c3c(c2c1)CCN(CCc1ccccn1)C3 | 40 | 75 | 
5 | Fc1ccc(C(CCCN2CCc3c([nH]c4ccccc34)C2)c2ccc(F)cc2)cc1 | >40 |  | 
6 | c1ccc2c3c([nH]c2c1)CN(Cc1ccncc1)CC3 |  | 13 | inhibition [5]: 27%
7 | CN1CCN(C2=Nc3cc(Cl)ccc3Nc3ccccc32)CC1 [CLOZAPINE] |  |  | AB50 (Rattus norvegicus [6]): 7 mg/kg; AB50 (Rattus norvegicus [7]): 11 mg/kg
8 | c1ccc2nc(CN3CCc4c([nH]c5ccccc45)C3)ccc2c1 | 48 | 7 | inhibition [8]: 7%
9 | C[C@@H]1CN(CCCn2c3ccccc3c3ccccc32)C[C@H](C)N1 [RIMCAZOLE] |  |  | AB50 (Rattus norvegicus [9]): 39 mg/kg
10 | Fc1ccc2[nH]c3c(c2c1)CCN(CCc1ccc2ccccc2n1)C3 | 40 |  | 
11 | Clc1ccc2[nH]c3c(c2c1)CCN(CCCCc1ccncc1)C3 | >40 | 51 | 
12 | CN(C)CCCN1c2ccccc2Sc2ccc(Cl)cc21 [CHLORPROMAZINE] |  |  | AB50 (Rattus norvegicus [10]): 3 mg/kg; AB50 (Rattus norvegicus [11]): 4 mg/kg
13 | Clc1cccc(N2CCN(CCCN3CCc4c([nH]c5ccccc45)C3)CC2)c1 | >40 |  | 
14 | c1ccc2c(c1)c1c(n2CCCN2CCCCC2)CN(CCCc2ccncc2)CC1 | >40 |  | inhibition [2]: 22%
15 | O=C(c1nccc2ccccc12)N1CCc2c([nH]c3ccccc23)C1 | >40 | 6 | 
16 | COc1ccc2[nH]c3c(c2c1)CCN(Cc1c(OC)cccc1OC)C3 |  | 15 | inhibition [2]: 27%
17 | Clc1ccc2[nH]c3c(c2c1)CCN(CCc1ccncc1)C3 |  |  | AB50 (Rattus norvegicus [12]): >40 mg/kg
18 | c1ccc2c(CCCCN3CCc4c([nH]c5ccccc45)C3)ccnc2c1 |  |  | AB50 (Rattus norvegicus [13]): 18 mg/kg
19 | COc1ccc2[nH]c3c(c2c1)CCN(CCc1ccncc1)C3 |  |  | inhibition [14]: 53%
20 | c1ccc(CCN2CCc3c(n(CCCN4CCCCC4)c4ccccc34)C2)nc1 | >40 |  | inhibition [2]: 9%
21 | OC1(c2ccc(Cl)cc2)CCN(CCCn2c3c(c4ccccc42)CCN(CCc2ccccn2)C3)CC1 | >40 |  | 
22 | COc1ccc2[nH]c3c(c2c1)CCN(CCc1ccccn1)C3 |  | 8 | 
23 | c1ccc(CCN2CCc3c([nH]c4ccccc34)C2)nc1 |  | 38 | AB50 (Rattus norvegicus [15]): 23 mg/kg
24 | O=C(CCCN1CCC(O)(c2ccc(Cl)cc2)CC1)c1ccc(F)cc1 [HALOPERIDOL] |  |  | AB50 (Rattus norvegicus [16]): 0.2 mg/kg; AB50 (Rattus norvegicus [17]): 0.2 mg/kg

Row | Structure (SMILES) | AB50 (Rattus norvegicus [3]) [mg/kg] | inhibition [4] [%] | also measured
25 | Fc1ccc2[nH]c3c(c2c1)CCN(CCCCc1ccncc1)C3 | >40 |  | Ki (D(2) dopamine receptor [18]): 720 nM
26 | Fc1ccc2[nH]c3c(c2c1)CCN(CCCCc1ccnc2ccccc12)C3 | >40 |  | 
27 | c1ccc2nc(CCCCN3CCc4c([nH]c5ccccc45)C3)ccc2c1 |  |  | Ki (D(2) dopamine receptor [19]): 139 nM; AB50 (Rattus norvegicus [20]): 31 mg/kg
28 | CC1CN(CCCN2CCc3c([nH]c4ccccc34)C2)CC(C)N1 (configuration not stated) | >40 | 38 | 
29 | CN(C)CCCn1c2c(c3ccccc31)CCN(CCCc1ccncc1)C2 | >40 | 0 | 
30 | Clc1cccc(N2CCN(CCCn3c4c(c5ccccc53)CCN(CCCc3cccnc3)C4)CC2)c1 | >40 |  | 
31 | Clc1ccc2[nH]c3c(c2c1)CCN(CCc1ccc2ccccc2n1)C3 | >40 |  | 
32 | c1ccc2c(N3CCc4c([nH]c5ccccc45)C3)ccnc2c1 | >40 | 7 | 
33 | Cn1c(CN2CCc3c([nH]c4ccccc34)C2)nc2ccccc21 |  | 6 | 
34 | FC(F)(F)c1cccc(N2CCN(CCCN3CCc4c([nH]c5ccccc45)C3)CC2)c1 | >40 |  | 
35 | O=C(CCCn1c2c(c3ccccc31)CCN(CCc1ccccn1)C2)c1ccc(F)cc1 | >40 |  | 
36 | COc1cccc(OC)c1CN1CCc2c([nH]c3ccccc23)C1 |  | 15 | inhibition [2]: 27%
37 | Clc1cccc(N2CCN(CCCn3c4c(c5ccccc53)CCN(CCc3ccccn3)C4)CC2)c1 | >40 |  | 
38 | c1cnc(N2CCN(CCCN3CCc4c([nH]c5ccccc45)C3)CC2)nc1 |  |  | AB50 (Rattus norvegicus [21]): 35 mg/kg
39 | c1ccc2c3c([nH]c2c1)CN(CCCc1ccncc1)CC3 |  |  | AB50 (Rattus norvegicus [22]): 40 mg/kg
40 | c1ccc2c3c([nH]c2c1)CN(CCc1cnccn1)CC3 |  | 13 | 
41 | c1ccc(Cn2c3c(c4ccccc42)CCN(CCc2ccccn2)C3)cc1 | >40 |  | 
42 | c1ccc2nc(CCN3CCc4c([nH]c5ccccc45)C3)ccc2c1 |  |  | AB50 (Rattus norvegicus [23]): 10 mg/kg; Ki (D(2) dopamine receptor [19]): 211 nM
43 | FC(F)(F)c1ccc(CN2CCN(CCCN3CCc4c([nH]c5ccccc45)C3)CC2)cc1 | >40 |  | 
44 | c1coc(CN2CCc3c([nH]c4ccccc34)C2)c1 |  | 7 | 
45 | c1ccc2c3c([nH]c2c1)CN(CCCCc1ccncc1)CC3 |  |  | AB50 (Rattus norvegicus [24]): 14 mg/kg; Ki (D(2) dopamine receptor [19]): 525 nM; AB50 (Rattus norvegicus [25]): 31 mg/kg
46 | c1cncc(CCCN2CCc3c(n(CCCN4CCCCC4)c4ccccc34)C2)c1 | >40 |  | inhibition [2]: 26%
47 | c1ccc2c(CN3CCc4c([nH]c5ccccc45)C3)ccnc2c1 | >40 | 26 | 
